Laboratory results as given in patent publication US20210283176A1, “CALCIUM BINDER FOR USE IN PREVENTING STILLBIRTH” (Nutreco IP Assets B.V, priority 2017, published 2021).

Test system: sows
Conditions: phosphoric acid 0.01 mol/liter (1 g/L), 25 sows, control 1.6 (24 sows)
Experimental: A calcium binder (phosphoric acid, PhA)) was added in a concentration of 0.01 mol/liter (corresponding to 1 g/L of phosphoric acid). The diets fed to the sows were the same.

## O=P(O)(O)O [PhA, phosphoric acid]
  Stillborn piglets, #: 1.1
